According to patent US8933019B2, “Antiviral cell-penetrating peptides” (priority 2008, dated 2015):
Bridge positions count the residues as written; N and C are the ends. Square brackets hold non-standard residues; d marks the D form. Peptide text beside a SMILES is read from it. S5 = C=CCCC[C@](C)(N)C(=O)O

Assays:
[1] = system: HIV-1 89.6; assay type: cell-based; details: laboratory strain, subtype B, PBMC, coreceptor R5X4; read-out: IC50 (μM ± SD), HIV-1 89.6
Description: (§1) The inhibitory activity of peptides on infection by primary HIV-1 isolates was determined as previously described (Jiang et al., Antimicrob. Agents Chemother. 48:4349-4359, 2004). Peripheral blood mononuclear cells (PBMCs) were isolated from the blood of healthy donors at the New York Blood Center by standard density gradient centrifugation using Histopaque-1077 (Sigma-Aldrich). The cells were cultured at 37° C. for 2 hr. Nonadherent cells were collected and resuspended at 5×10^6 cells/ml RPMI-1640 medium containing 10% FBS, 5 μg/ml PHA, and 100 U/ml IL-2 (Sigma-Aldrich), followed by incubation at 37° C. for 3 days. The PHA-stimulated cells (5×10^4 cells/well) were infected with primary HIV-1 isolates at 500 TCID50 (0.01 MOI) in the absence or presence of peptide inhibitor at graded concentrations. Culture media were changed every 3 days and replaced with fresh media containing freshly prepared inhibitor. The supernatants were collected 7 days post-infection and tested for p24 antigen by ELISA (FIG. 6). The percent inhibition of p24 production, IC50 and IC90 values were calculated by the GraphPad Prism software (GraphPad Software Inc.).
(§2) In addition, NYAD-201, NYAD-202 and NYAD-203 were also tested using several laboratory-adapted and primary isolates in MT-2 cells and PBMC (peripheral blood mononuclear cells), respectively. The inhibition of p24 production in MT-2 cells by NYAD-201 and its analogs were measured over a range of concentrations and the concentration required to inhibit 50% (IC50) of the p24 production was calculated. […] NYAD-201 and its analogs inhibited the laboratory strains with low μM potency (IC50˜2-8 μM), and both R5- and X4-tropic viruses were inhibited with similar potency.

[2] = system: HIV-1 BaL; assay type: cell-based; details: laboratory strain, subtype B, PBMC, coreceptor R5; read-out: IC50 (μM ± SD), HIV-1 BaL
Description: as §1, §2

[3] = system: HIV-1 92UG029; assay: Inhibition of primary HIV-1 isolate, p24 ELISA, PBMC; assay type: cell-based; details: subtype A, coreceptor X4, read-out: IC50 (μM ± SD), HIV-1 92UG029
Description: as §1
(§3) NYAD-201, NYAD-202 and NYAD-203 were also tested against a set of primary HIV-1 isolates in PBMC representing mostly group M and one from group O with diverse coreceptor usage. […] The inhibitory activities of the peptides against this diverse range of primary isolates were similar, indicating its effectiveness against a wide range of HIV-1 isolates.

[4] = system: HIV-1 92US657; assay: as above; assay type: cell-based; details: subtype B, coreceptor R5, read-out: IC50 (μM ± SD), HIV-1 92US657
Description: as §1, §3

[5] = system: HIV-1 93BR020; assay: as above; assay type: cell-based; details: subtype F, coreceptor R5X4, read-out: IC50 (μM ± SD), HIV-1 93BR020
Description: as §1, §3

[6] = system: HIV-1 93IN101; assay: as above; assay type: cell-based; details: subtype C, coreceptor R5, read-out: IC50 (μM ± SD), HIV-1 93IN101
Description: as §1, §3

[7] = system: HIV-1 93RW024; assay: as above; assay type: cell-based; details: subtype A, coreceptor R5X4, read-out: IC50 (μM ± SD), HIV-1 93RW024
Description: as §1, §3

[8] = system: HIV-1 98CN009; assay: as above; assay type: cell-based; details: subtype C, coreceptor R5, read-out: IC50 (μM ± SD), HIV-1 98CN009
Description: as §1, §3

[9] = system: HIV-1 BCF02; assay: as above; assay type: cell-based; details: (Group 0), coreceptor R5, read-out: IC50 (μM ± SD), HIV-1 BCF02
Description: as §1, §3

[10] = system: HIV-1 CMU02; assay: as above; assay type: cell-based; details: subtype EA, coreceptor X4, read-out: IC50 (μM ± SD), HIV-1 CMU02
Description: as §1, §3

[11] = system: HIV-1 RU570; assay: as above; assay type: cell-based; details: subtype G, coreceptor R5, read-out: IC50 (μM ± SD), HIV-1 RU570
Description: as §1, §3

[12] = Cytotoxicity, XTT method, PBMC; assay type: cell-based; details: human
Description: Cytotoxicity of peptides in MT-2 cells and PBMC was measured by the XTT [(sodium 3′-(1-(phenylamino)-carbonyl)-3,4-tetrazolium-bis(4-methoxy-6-nitro) bezenesulfonic acid hydrate)] method as previously described (Jiang et al., 2004). Briefly, for MT-2 cells, 100 μl of a peptide at graded concentrations was added to an equal volume of cells (1×10^5 cells/ml) in 96-well plates followed by incubation at 37° C. for 4 days, which ran parallel to the neutralization assay in MT-2 (except medium was added instead of virus). In the case of PBMC, 5×10^5 cells/ml were used and the cytotoxicity was measured after 7 days. After addition of XTT (PolySciences, Inc.), the soluble intracellular formazan was quantitated colorimetrically at 450 nm 4 hr later with a reference at 620 nm. The percent of cytotoxicity and the CC50 values were calculated as above (Table 2 and Table 3).

[13] = Solubility, observation in the Jurkat cytotoxicity test; assay type: physicochemical
Description: Cytotoxicity was also evaluated in Jurkat cells using a Promega LDH leakage detection kit. Jurkat cells were plated at 10^4 cells/well in a volume of 200 μl. The test was performed after 30 min, 2 hr and 4 hr of exposure to the NYAD-201, NYAD-202 and NYAD-203 compounds.

CSCC[C@@H]1NC(=O)[C@H](Cc2c[nH]c3ccccc23)NC(=O)[C@@](C)(NC(=O)[C@H](CCCCN)NC(=O)[C@@H](NC(=O)[C@H](CCC(=O)O)NC(=O)[C@H](CCC(N)=O)NC(=O)[C@H](C)N)C(C)C)CCCC=CCCC[C@@](C)(C(=O)N[C@H](C(=O)N[C@@H](CC(C)C)C(=O)N[C@@H](CC(C)C)C(=O)N[C@H](C(=O)N[C@@H](C)C(N)=O)C(C)C)[C@@H](C)O)NC(=O)[C@H]([C@@H](C)O)NC1=O [NYAD-201, AQEVKXWMTXTLLVA] (H-AQEVK[S5]WMT[S5]TLLVA-NH2; staple 6-10)
IC50 [1]: 5.21 ± 0.87 µM
IC50 [2]: 4.73 ± 1.92 µM
IC50 [3]: 7.88 ± 1.01 µM
IC50 [4]: 6.72 ± 0.98 µM
IC50 [5]: 2.78 ± 0.57 µM
IC50 [6]: 1.58 ± 0.57 µM
IC50 [7]: 9.88 ± 0.3 µM
IC50 [8]: 5.31 ± 0.83 µM
IC50 [9]: 15.8 ± 3.43 µM
IC50 [10]: 7.36 ± 0.69 µM
IC50 [11]: 7.48 ± 1.21 µM
CC50 at 7 days [12]: > 115 µM
Solubility [13]: not very soluble
